What was measured:
[1] = tested on: Phospho-KIT (Tyr719); assay: GIST48 KIT Western Blot; assay type: cell-based; settings: GIST48 cells, 4 hours, serum-free medium; read-out: pKIT suppression by western blot analysi GIST48
Procedure: GIST48, GIST430, and GIST882 cells were obtained from J. Fletcher (Brigham and Women's Hospital, Boston, MA). GIST T1 cells were obtained from B. Rubin (Cleveland Clinic, Cleveland, OH) and Professor Takahiro Taguchi (Kochi Medical School, Nankoku, Kochi, Japan). […] GIST430 cells were grown in Ham's F10 medium supplemented with 15% characterized fetal bovine serum (Invitrogen, Carlsbad, CA), 30 mg/L bovine pituitary extract (BD Biosciences, San Jose, CA), 0.5% Mito+ serum extender (BD Biosciences, San Jose, CA), 1 unit/mL penicillin G, 1 µg/ml streptomycin, and 0.29 mg/mL L-glutamine at 37 °C, 5%CO2, 95% humidity. GIST T1 cells were grown in DMEM medium supplemented with 10% characterized fetal bovine serum (Invitrogen, Carlsbad, CA), 1 unit/mL penicillin G, 1 µg/ml streptomycin, and 0.29 mg/mL L-glutamine at 37 °C, 5% CO2, and 95% humidity.
Two hundred fifty thousand cells were added per well in a 24-well tissue-culture treated plate. […] Medium was aspirated, cells were washed with PBS, and serum-free RPMI1640 medium was added. […] Cells were washed with PBS, then lysed. Cell lysates were separated by SDS-PAGE and transferred to PVDF. Phospho-KIT (Tyr719) was detected using an antibody from Cell Signaling Technology (Beverly, MA), ECL Plus detection reagent (GE Healthcare, Piscataway, NJ) and a Molecular Devices Storm 840 phosphorimager in fluorescence mode. Blots were stripped and probed for total KIT using an antibody from Santa Cruz Biotech (Santa Cruz, CA). IC50 values were calculated using Prism software (Graphpad, San Diego, CA).

[2] = tested on: GIST T1 cells; assay: GIST T1 Cell Proliferation Assay; assay type: cell-based; settings: Homo sapiens, GISTT1, 72 h, 68 hours + 4 hours resazurin
Procedure: GIST48, GIST430, and GIST882 cells were obtained from J. Fletcher (Brigham and Women's Hospital, Boston, MA). GIST T1 cells were obtained from B. Rubin (Cleveland Clinic, Cleveland, OH) and Professor Takahiro Taguchi (Kochi Medical School, Nankoku, Kochi, Japan). Briefly, GIST48 and GIST 882 cells were grown in RPMI 1640 medium supplemented with 15% characterized fetal bovine serum (Invitrogen, Carlsbad, CA), 1 unit/mL penicillin G, 1 µg/ml streptomycin, and 0.29 mg/mL L-glutamine at 37 °C, 5% CO2, and 95% humidity. GIST430 cells were grown in Ham's F10 medium supplemented with 15% characterized fetal bovine serum (Invitrogen, Carlsbad, CA), 30 mg/L bovine pituitary extract (BD Biosciences, San Jose, CA), 0.5% Mito+ serum extender (BD Biosciences, San Jose, CA), 1 unit/mL penicillin G, 1 µg/ml streptomycin, and 0.29 mg/mL L-glutamine at 37 °C, 5%CO2, 95% humidity. GIST T1 cells were grown in DMEM medium supplemented with 10% characterized fetal bovine serum (Invitrogen, Carlsbad, CA), 1 unit/mL penicillin G, 1 µg/ml streptomycin, and 0.29 mg/mL L-glutamine at 37 °C, 5% CO2, and 95% humidity.
A serial dilution of test compound was dispensed into a 384-well black clear bottom plate (Corning, Corning, NY). One thousand two-hundred fifty cells were added per well in 50 µL complete growth medium. Plates were incubated for 68 hours at 37 °C, 5% CO2, 95% humidity. At the end of the incubation period 10 µL of a 440 µM solution of resazurin (Sigma, St. Louis, MO) in PBS was added to each well and incubated for an additional 4 hours at 37 °C, 5% CO2, 95% humidity. Plates were read on a Synergy2 reader (Biotek, Winooski, VT) using an excitation of 540 nm and an emission of 600 nm.

[3] = target: T1, c-KIT V654A kinase (Homo sapiens, UniProt P10721, V654A); assay: c-KIT V654A Kinase Assay; assay type: biochemical; settings: enzymatic assay, ATP 200 µM
T1 construct: residues T544-V976 with N-terminal GST fusion; purchased deCODE Biostructures
T1 sequence (P10721 544-976 V654A): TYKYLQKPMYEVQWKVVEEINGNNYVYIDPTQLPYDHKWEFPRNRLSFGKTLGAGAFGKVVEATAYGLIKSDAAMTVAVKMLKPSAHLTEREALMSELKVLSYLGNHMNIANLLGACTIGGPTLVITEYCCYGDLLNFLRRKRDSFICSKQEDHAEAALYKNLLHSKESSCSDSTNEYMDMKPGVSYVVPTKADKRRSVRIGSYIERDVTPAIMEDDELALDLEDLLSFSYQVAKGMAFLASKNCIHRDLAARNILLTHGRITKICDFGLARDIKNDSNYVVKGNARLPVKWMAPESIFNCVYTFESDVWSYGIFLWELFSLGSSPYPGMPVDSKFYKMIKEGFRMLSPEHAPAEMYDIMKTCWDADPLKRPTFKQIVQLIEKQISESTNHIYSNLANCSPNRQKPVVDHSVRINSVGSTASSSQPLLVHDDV
Procedure: (§1) In this assay, the oxidation of NADH (measured by decrease in absorbance at 340 nm) was continuously monitored spectrophotometrically. […] The inhibition reaction was started by mixing serial diluted test compound with the above reaction mixture. The absorption at 340 nm was monitored continuously for 6 hours at 30 °C on Synergy 2 plate reader (BioTech).
(§2) The protein construct was prepared by deCODE Biostructures using procedures known in the art. The construct contains residues T544-V976 of cKit, an N-terminal tag, a GST-fusion sequence and a TEV cleavage site. This construct is identical to Seq ID no.

[4] = target: T2, c-KIT D816H kinase (Homo sapiens, UniProt P10721, D816H); assay: c-KIT D816H Kinase Assay; assay type: biochemical; settings: enzymatic assay, ATP 200 µM
T2 construct: The construct contains residues T544-V976 of cKit; GST (N); TEV cleavage site (internal); purchased deCODE Biostructures
T2 sequence (P10721 544-976 D816H): as the sequence (P10721 544-976 V654A) above, with A111V, D273H counted along it
Procedure: as §1, with “(BioTech). […] The protein construct was prepared by deCODE Biostructures using procedures known in the art. The construct contains […] of cKit, an N-terminal tag, a GST-fusion sequence and a TEV cleavage site. This construct is identical to Seq ID no.” for “(BioTech).”

[5] = target: T3, c-KIT T670I kinase (Homo sapiens, UniProt P10721, T670I); assay: c-KIT T670I kinase assay; assay type: biochemical; settings: enzymatic assay
T3 construct: The construct contains residues T544-V976 of cKit; GST (N); TEV cleavage site (internal); purchased deCODE Biostructures
T3 sequence (P10721 544-976 T670I): as the sequence (P10721 544-976 V654A) above, with A111V, T127I counted along it
Procedure: In this assay, the oxidation of NADH (measured by decrease in absorbance at 340 nm) was continuously monitored spectrophotometrically. […] The inhibition reaction was started by mixing serial diluted test compound with the above reaction mixture. The absorption at 340 nm was monitored continuously for 5 hours at 30 °C on Synergy 2 plate reader (BioTech). […] The protein construct was prepared by deCODE Biostructures using procedures known in the art. The construct contains […] of cKit, an N-terminal tag, a GST-fusion sequence and a TEV cleavage site. This construct is identical to Seq ID no. 1 except for the T670I mutation. [formula] [formula]

[6] = target: T4, c-KIT D816V kinase (Homo sapiens, UniProt P10721, D816V); assay: c-KIT D816V kinase Assay; assay type: biochemical; settings: enzymatic assay, ATP 200 uM
T4 construct: residues T544-V976 with N-terminal GST fusion; purchased deCODE Biostructures
T4 sequence (P10721 544-976 D816V): as the sequence (P10721 544-976 V654A) above, with A111V, D273V counted along it
Procedure: as §1, with “5” for “6”
as §2

[7] = target: c-KIT kinase (Homo sapiens, UniProt P10721); assay: c-KIT kinase Assay; assay type: biochemical; design: cKIT residues T544-V976; GST (N); TEV cleavage site (internal); purchased deCODE Biostructures; settings: enzymatic assay, ATP 200 µM; read-out: KIT (wt) IC50
Sequence of c-KIT kinase (P10721 544-976): as the sequence (P10721 544-976 V654A) above, with A111V counted along it
Procedure: In this assay, the oxidation of NADH (measured by decrease in absorbance at 340 nm) was continuously monitored spectrophotometrically. […] The absorption at 340 nm was monitored continuously for 2 hours at 30 °C on Synergy 2 (BioTeK). The reaction rate was calculated using the 0 to 1 h time frame. Percent inhibition was obtained by comparison of reaction rate with that of a control (i.e. with no test compound). IC50 values were calculated from a series of percent inhibition values determined at a range of inhibitor concentrations using software routines as implemented in the GraphPad Prism software package. The protein construct was prepared by deCODE Biostructures using procedures known in the art. The construct contains […] of cKit, an N-terminal tag, a GST-fusion sequence and a TEV cleavage site. [formula]

IC50 [1]	IC50 [3]	IC50 [4]	IC50 [5]	IC50 [6]	IC50 [7]	Compound	IC50 [2]
10 to 100 nM						Cc1cc(F)c(NC(=O)Nc2ccccc2)cc1-c1cc2cnc(NC(=O)N3CCC3)cc2n(C(C)C)c1=O [Example 109, N-(3-(4-fluoro-2-methyl-5-(3-phenylureido)phenyl)-1-isopropyl-2-oxo-1,2-dihydro-1,6-naphthyridin-7-yl)azetidine-1-carboxamide]	
	100 to 1000 nM	10 to 100 nM	10 to 100 nM	100 to 1000 nM	10 to 100 nM	CCn1c(=O)c(-c2cc(NC(=O)Nc3ccc(F)c(CN4CCN(C)CC4)c3)c(F)cc2C)cc2cnc(NC)cc21 [Example 89, 1-(5-(1-ethyl-7-(methylamino)-2-oxo-1,2-dihydro-1,6-naphthyridin-3-yl)-2-fluoro-4-methylphenyl)-3-(4-fluoro-3-((4-methylpiperazin-1-yl)methyl)phenyl)urea]	
	10 to 100 nM	10 to 100 nM	10 to 100 nM	10 to 100 nM	< 10 nM	CCn1c(=O)c(-c2cc(NC(=O)Nc3cccc(C#N)c3)c(F)cc2Cl)cc2cnc(NC)cc21 [Example 91, 1-(4-chloro-5-(1-ethyl-7-(methylamino)-2-oxo-1,2-dihydro-1,6-naphthyridin-3-yl)-2-fluorophenyl)-3-(3-cyanophenyl)urea]	
	100 to 1000 nM	< 10 nM	10 to 100 nM	10 to 100 nM	10 to 100 nM	CCn1c(=O)c(-c2cc(NC(=O)Nc3ccccc3)c(F)cc2C)cc2cnc(NC(=O)N3CC(N(C)C)C3)cc21 [Example 113, 3-(dimethylamino)-N-(1-ethyl-3-(4-fluoro-2-methyl-5-(3-phenylureido)phenyl)-2-oxo-1,2-dihydro-1,6-naphthyridin-7-yl)azetidine-1-carboxamide]	
< 10 nM	10 to 100 nM	10 to 100 nM	10 to 100 nM	10 to 100 nM	10 to 100 nM	CCn1c(=O)c(-c2cc(NC(=O)Nc3ccccc3)c(F)cc2C)cc2cnc(NC(=O)N3CCC3)cc21 [Example 110, N-(1-ethyl-3-(4-fluoro-2-methyl-5-(3-phenylureido)phenyl)-2-oxo-1,2-dihydro-1,6-naphthyridin-7-yl)azetidine-1-carboxamide]	
	10 to 100 nM	10 to 100 nM	10 to 100 nM	10 to 100 nM	< 10 nM	CCn1c(=O)c(-c2cc(NC(=O)Nc3ccc(F)cc3)c(F)cc2Cl)cc2cnc(NCCOC)cc21 [Example 34, 1-(4-chloro-5-(1-ethyl-7-(2-methoxyethylamino)-2-oxo-1,2-dihydro-1,6-naphthyridin-3-yl)-2-fluorophenyl)-3-(4-fluorophenyl)urea]	

Continued, molecule first:

Compound	IC50 [1]	IC50 [3]	IC50 [4]	IC50 [5]	IC50 [6]	IC50 [7]	IC50 [2]
CCn1c(=O)c(-c2cc(NC(=O)Nc3ccc(F)c(CN4CCCC4)c3)c(F)cc2Cl)cc2cnc(NC)cc21 [Example 97, 1-(4-chloro-5-(1-ethyl-7-(methylamino)-2-oxo-1,2-dihydro-1,6-naphthyridin-3-yl)-2-fluorophenyl)-3-(4-fluoro-3-(pyrrolidin-1-ylmethyl)phenyl)urea]							< 10 nM
CCn1c(=O)c(-c2cc(NC(=O)Nc3ccc(F)c(CN4CCOCC4)c3)c(F)cc2Cl)cc2cnc(NC)cc21 [Example 95, 1-(4-chloro-5-(1-ethyl-7-(methylamino)-2-oxo-1,2-dihydro-1,6-naphthyridin-3-yl)-2-fluorophenyl)-3-(4-fluoro-3-(morpholinomethyl)phenyl)urea]				10 to 100 nM	100 to 1000 nM	< 10 nM	< 10 nM
CC(=O)Nc1cc2c(cn1)cc(-c1cc(NC(=O)Nc3cccc(F)c3)c(F)cc1Cl)c(=O)n2C(C)C [Example 99, N-(3-(2-chloro-4-fluoro-5-(3-(3-fluorophenyl)ureido)phenyl)-1-isopropyl-2-oxo-1,2-dihydro-1,6-naphthyridin-7-yl)acetamide]							< 10 nM
CCn1c(=O)c(-c2cc(NC(=O)Nc3ccccc3F)c(F)cc2Cl)cc2cnc(NCCOC)cc21 [Example 35, 1-(4-chloro-5-(1-ethyl-7-(2-methoxyethylamino)-2-oxo-1,2-dihydro-1,6-naphthyridin-3-yl)-2-fluorophenyl)-3-(2-fluorophenyl)urea]		10 to 100 nM	10 to 100 nM	100 to 1000 nM	10 to 100 nM	< 10 nM	
CCn1c(=O)c(-c2cc(NC(=O)Nc3ccc(F)c(CN4CCOCC4)c3)c(F)cc2Cl)cc2cnc(NC=O)cc21 [Example 107, N-(3-(2-chloro-4-fluoro-5-(3-(4-fluoro-3-(morpholinomethyl)phenyl)ureido)phenyl)-1-ethyl-2-oxo-1,2-dihydro-1,6-naphthyridin-7-yl)formamide]							10 to 100 nM

From patent publication EP3722296B1, “DIHYDRONAPHTHYRIDINES AND RELATED COMPOUNDS USEFUL AS KINASE INHIBITORS FOR THE TREATMENT OF PROLIFERATIVE DISEASES” (Deciphera Pharmaceuticals, LLC, priority 2012, dated 2013)
